Literature values in article PMC8513424 (Laryngoscope Investigative Otolaryngology, 2021).

Assays:
[1] = test system: isogenic VS‐ and meningioma‐related cell lines with or without NF2 expression; settings: among 19 small molecules; cited from earlier work
[2] = test system: meningiomas; settings: cited from earlier work

Molecule | Activity across schwannoma and meningioma cell models [1] | Response of meningiomas [2]
COc1ccc(-c2nc(N3CCOCC3)c3sc(CN(C)c4ncc(C(=O)NO)cn4)cc3n2)cn1 [CUDC‐907] | greatest activity | 
Cc1[nH]c2ccccc2c1CCNCc1ccc(/C=C/C(=O)NO)cc1 [panobinostat] | greatest activity | 
bevacizumab |  | do not respond
